# What was measured:
# [1] = tested on: Candida albicans; experiment: Antimicrobial MIC protocol, Candida albicans; type: cell-based, Candida albicans (ATCC strain 44506); conditions: lowest concentration which completely inhibited growth, 1000 cells/mL, 37° C. overnight
# Description: (§1) Unless otherwise noted, all media were autoclaved at 121° C. for 15 minutes.
# Candida albicans: C. albicans (ATCC strain 44506 was grown on Sabouraud dextrose agar to produce single colonies, one of which was used to inoculate Sabouraud dextrose broth. The broth was incubated at 37° C. with shaking at 200 rpm for 18 hours. The resultant culture was brought to 10% (v/v) glycerol, frozen at -80° C., and used as the inoculum for the anti-Candida assay.
# Two-fold dilutions of the test compound were prepared in 50 μL volumes of a suitable solvent using 96-well microtiter plates. In a separate 96-well plate, 35 μL volumes of either Sabouraud dextrose broth or RPMI-1640 were placed in each well. The test compound (5 μL) was then transferred to the broth. An inoculum of C. albicans in the appropriate medium was added to give a cell density of 1000 cells/mL and a total volume of 50 μL. Plates were incubated at 37° C. overnight.
# [2] = tested on: Bacillus subtilis; experiment: Antimicrobial disc diffusion assay, Bacillus subtilis; type: cell-based, Bacillus subtilis (ATCC strain 6633); conditions: 20 μg/disc, 6.35 mm paper discs, overnight at 37° C., read-out: Antimicrobial Bacillus subtilis zone (diameter of the zone of growth inhibition)
# Description: as §1
# Standard spore stocks (ATCC strain 6633 were purchased from Difco (#0453-36-0).
# B. subtilis was inoculated into Penassay medium (1 mL of stock per 200 mL agar), melted, and cooled to 45° C. Plates were poured as described above.
# Paper discs (6.35 mm) were impregnated with the test substance and allowed to dry. They were then placed onto the surface of a test plate prepared as detailed above. Plates were incubated overnight at 37° C., after which time the zones of growh inhibition could be read. These were expressed as the diameter of the zone in millimeters. Standard drugs were used in all cases.
# [3] = tested on: P388 murine leukemia cells; experiment: P388 in vitro antitumor screen (inhibition of P388 cell proliferation, MTT assay); type: cell-based; conditions: Mus musculus; for IC50: P388 cells, 48-hour incubation, MTT assay
# Description: P388 murine leukemia cells, obtained from the National Cancer Institute, Bethesda, MD, were maintained at 37° C. in 5% CO2 in humidified air. Growth medium was Roswell Park Memorial Institute medium 1640 supplemented with 10% heat-inactivated horse serum. Stock cultures of P388 cells were grown in antibiotic-free growth medium and were subcultured (10^5 cells/ml, 25 ml cultures in T-25 plastic tissue culture flasks) every 2-3 days. […] An appropriate volume of the dilution was transferred to duplicate wells in a 96-well plate, evaporated to dryness, and 200 μl of growth medium-containing cells at a density of 1×10^5 cells/ml were added per well (final concentration of extract was 20 μg/ml). […] For daily quality control, each technician determines the IC50 of fluorouracil for inhibition of P388 cell proliferation. After 48-hour incubations, cell number was determined with the MTT assay (below), calculated as a percent of untreated cell growth, converted to percent inhibition, and reported to the chemist requesting the screen.
# The initial determination of an IC50 value for inhibition of P388 cell proliferation with a crude, semipure, or pure sample was made by diluting the sample in methanol to the appropriate concentration, and then serial 1:1 dilutions were made in duplicate in a 96-well plate, such that the final concentrations in the assay were 20, 10, 5, 1.25, and 0.625 μg/ml. After solvent was evaporated to dryness, cells were added to each well as described above. After 48-hour incubations, cell numbers were determined with the MTT assay, converted to percent control, and plotted versus the log of the sample concentration. Curves were fitted by least-squares linear regression of logit-transformed data and the concentration of sample that inhibited cell proliferation by 50% was reported to the chemist requesting the screen. If the IC50 value was less than 0.625 μg/ml, additional serial dilutions were made and tested for activity.
# MTT or 3-(4,5-dimethylthiazol-2-yl)-2,5-diphenyl-tetrazolium bromide is used in an established method (J. Immunol. Methods [1983] 65:55-63) to enumerate cells rather than "Coulter counting." For screening purposes, the correlation between percent inhibition determined for actual crude extracts with the Coulter counter and MTT method was very good (r=0.953, n=102 separate determinations of activity at 20 μg/ml), and no extract that was positive as determined by actual cell counts was lost using the MTT assay.
SMILES,MIC [1] [µg/mL],IC50 [3] [µg/mL],zone of inhibition at 20 µg/disc [2] [mm],"inhibition at 0.2 µg/mL ([3]; P388, 48 h, read-out: inhibition of cell replication (positive control)) [%]"
Cn1c(-c2cn(C)c3ccccc23)c[n+](C)c1-c1cn(C)c2cc(Br)ccc12 [Tetramethylnortopsentin B],> 50,0.34,12,
"O=c1[nH]cc(F)c(=O)[nH]1 [fluorouracil, reference compound]",,,,~95
Brc1ccc2c(-c3c[nH]c(-c4c[nH]c5cc(Br)ccc45)n3)c[nH]c2c1 [Nortopsentin A],3.1,7.6,8,

# Now from value to molecule, other results behind:
MIC [1] [µg/mL],IC50 [3] [µg/mL],SMILES,zone of inhibition at 20 µg/disc [2] [mm],"inhibition at 0.2 µg/mL ([3]; P388, 48 h, read-out: inhibition of cell replication (positive control)) [%]"
12.5,1.7,Brc1ccc2c(-c3c[nH]c(-c4c[nH]c5ccccc45)n3)c[nH]c2c1 [Nortopsentin C],9,
6.2,7.8,Brc1ccc2c(-c3nc(-c4c[nH]c5ccccc45)c[nH]3)c[nH]c2c1 [Nortopsentin B],9,

# Reference: patent US4970226A, “Bis-indole imidazole compounds which are useful antitumor and antimicrobial agents” (Harbor Branch Oceanographic Institution, Inc., priority 1989, dated 1990)
